target: HDAC2 (Homo sapiens, UniProt Q92769); assay: HDAC2 fluorescence inhibition assay (tBoc-Lys(Ac)-AMC)
Sequence (Q92769 with tags, fused parts or gaps): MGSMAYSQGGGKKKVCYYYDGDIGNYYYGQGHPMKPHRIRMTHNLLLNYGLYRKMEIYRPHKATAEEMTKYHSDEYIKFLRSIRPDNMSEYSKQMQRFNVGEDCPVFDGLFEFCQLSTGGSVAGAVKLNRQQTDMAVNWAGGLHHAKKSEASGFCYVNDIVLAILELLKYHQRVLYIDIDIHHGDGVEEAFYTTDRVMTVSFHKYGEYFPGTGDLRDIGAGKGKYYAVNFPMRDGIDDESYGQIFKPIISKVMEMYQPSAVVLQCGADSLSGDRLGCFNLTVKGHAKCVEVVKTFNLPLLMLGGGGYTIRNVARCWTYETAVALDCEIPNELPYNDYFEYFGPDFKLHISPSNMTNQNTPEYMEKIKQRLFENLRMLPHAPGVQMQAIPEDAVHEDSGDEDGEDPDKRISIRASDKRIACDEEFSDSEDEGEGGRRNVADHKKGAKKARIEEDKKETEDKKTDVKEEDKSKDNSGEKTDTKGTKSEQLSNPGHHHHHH

| Structure (SMILES) | IC50 |
| --- | --- |
| Cc1nn(Cc2ccc(C(=O)Nc3ccccc3N)cc2)c2cc(C(F)(F)F)ccc12 [Example 93, N-(2-aminophenyl)-4-((3-methyl-6-(trifluoromethyl)-1H-indazol-1-yl)methyl)benzamide] | 50 to 100 nM |
| CC(=O)Nc1ccc2c(C)n(Cc3ccc(C(=O)Nc4ccccc4N)cc3)nc2c1 [Example 86, 4-((6-acetamido-3-methyl-2H-indazol-2-yl)methyl)-N-(2-aminophenyl)benzamide] | ≤ 50 nM |
| Cc1c2cc(F)ccc2nn1Cc1ccc(C(=O)Nc2ccccc2N)cc1 [Example 71, N-(2-aminophenyl)-4-((5-fluoro-3-methyl-2H-indazol-2-yl)methyl)benzamide] | 50 to 100 nM |
| Nc1ccccc1NC(=O)c1ccc(Cn2cc3cc(F)ccc3n2)cc1 [Example 38, N-(2-aminophenyl)-4-((5-fluoro-2H-indazol-2-yl)methyl)benzamide] | ≤ 50 nM |
| Nc1ccccc1NC(=O)c1ccc(Cn2cc3cccnc3n2)cc1 [Example 25, 4-((2H-Pyrazolo[3,4-b]pyridin-2-yl)methyl)-N-(2-aminophenyl)benzamide] | 100 to 500 nM |
| COc1cccc2cn(Cc3ccc(C(=O)Nc4ccccc4N)cc3)nc12 [Example 82, N-(2-aminophenyl)-4-((7-methoxy-2H-indazol-2-yl)methyl)benzamide] | 50 to 100 nM |
| CC(=O)Nc1ccc2c(cnn2Cc2ccc(C(=O)Nc3ccccc3N)s2)c1 [Example 110, 5-((5-acetamido-1H-indazol-1-yl)methyl)-N-(2-aminophenyl)thiophene-2-carboxamide] | 50 to 100 nM |
| C[C@H](c1ccc(C(=O)Nc2ccccc2N)cc1)n1cc2ccccc2n1 [Example 50, (R)-4-(1-(2H-indazol-2-yl)ethyl)-N-(2-aminophenyl)benzamide] | 50 to 100 nM |
| Nc1ccccc1NC(=O)c1ccc(Cn2cc3cccc(F)c3n2)cc1 [Example 47, N-(2-aminophenyl)-4-((7-fluoro-2H-indazol-2-yl)methyl)benzamide] | 50 to 100 nM |
| COc1ccc2c(C)nn(Cc3ccc(C(=O)Nc4cc(-c5cccs5)ccc4N)cc3)c2c1 [Example 114, N-(2-amino-5-(thiophen-2-yl)phenyl)-4-((6-methoxy-3-methyl-1H-indazol-1-yl)methyl)benzamide] | 50 to 100 nM |
| COc1cccc2nn(Cc3ccc(C(=O)Nc4ccccc4N)cc3)cc12 [Example 83, N-(2-aminophenyl)-4-((4-methoxy-2H-indazol-2-yl)methyl)benzamide] | ≤ 50 nM |
| Nc1ccc2nn(Cc3ccc(C(=O)Nc4ccccc4N)cc3)cc2c1 [Example 9, 4-((5-amino-2H-indazol-2-yl)methyl)-N-(2-aminophenyl)benzamide] | 50 to 100 nM |
| Nc1ccccc1NC(=O)c1ccc(Cn2[nH]c3ccccc3c2=O)cc1 [Example 65, N-(2-aminophenyl)-4-((3-oxo-1H-indazol-2(3H)-yl)methyl)benzamide] | 100 to 500 nM |
| Nc1ccccc1NC(=O)c1ccc(Cn2nc(N)c3cc(C(F)(F)F)ccc32)cc1 [Example 63, 4-((3-amino-5-(trifluoromethyl)-1H-indazol-1-yl)methyl)-N-(2-aminophenyl)benzamide] | 50 to 100 nM |
| Nc1ccccc1NC(=O)c1ccc(Cn2ncc3c(Cl)cccc32)cc1 [Example 42, N-(2-aminophenyl)-4-((4-chloro-1H-indazol-1-yl)methyl)benzamide] | ≤ 50 nM |
| Nc1ccccc1NC(=O)c1ccc(Cn2nnc3ccccc32)cc1 [Example 100, 4-((1H-benzo[d][1,2,3]triazol-1-yl)methyl)-N-(2-aminophenyl)benzamide] | 50 to 100 nM |
| Nc1ccccc1NC(=O)c1ccc(Cn2ncc3c(F)cc(F)cc32)cc1 [Example 44, N-(2-aminophenyl)-4-((4,6-difluoro-1H-indazol-1-yl)methyl)benzamide] | 50 to 100 nM |
| Nc1ccccc1NC(=O)c1ccc(Cn2cc3c(F)cc(F)cc3n2)cc1 [Example 45, N-(2-aminophenyl)-4-((4,6-difluoro-2H-indazol-2-yl)methyl)benzamide] | 50 to 100 nM |
| CCc1nn(Cc2ccc(C(=O)Nc3ccccc3N)cc2)c2ccccc12 [Example 72, N-(2-aminophenyl)-4-((3-ethyl-1H-indazol-1-yl)methyl)benzamide] | 50 to 100 nM |
| COc1ccc2cnn(Cc3ccc(C(=O)Nc4ccccc4N)cc3)c2c1 [Example 58, N-(2-aminophenyl)-4-((6-methoxy-1H-indazol-1-yl)methyl)benzamide] | 50 to 100 nM |
| CC(=O)Nc1ccc2nn(Cc3ccc(C(=O)Nc4ccccc4N)cc3)c(C)c2c1 [Example 106, 4-((5-acetamido-3-methyl-2H-indazol-2-yl)methyl)-N-(2-aminophenyl)benzamide] | ≤ 50 nM |

The next lines start with the values.

| IC50 | Structure (SMILES) |
| --- | --- |
| 100 to 500 nM | Nc1ccccc1NC(=O)c1ccc(Cn2ncc3c2CCCC3)cc1 [Example 130, N-(2-aminophenyl)-4-((4,5,6,7-tetrahydro-1H-indazol-1-yl)methyl)benzamide] |
| 50 to 100 nM | COc1ccc2c(C)n(Cc3ccc(C(=O)Nc4cc(-c5cccs5)ccc4N)cc3)nc2c1 [Example 116, N-(2-amino-5-(thiophen-2-yl)phenyl)-4-((6-methoxy-3-methyl-2H-indazol-2-yl)methyl)benzamide] |
| ≤ 50 nM | Cc1cnn(Cc2ccc(C(=O)Nc3cc(-c4cccs4)ccc3N)cc2)c1 [Example 115, N-(2-amino-5-(thiophen-2-yl)phenyl)-4-((4-methyl-1H-pyrazol-1-yl)methyl)benzamide] |
| ≤ 50 nM | Nc1ccccc1NC(=O)c1ccc(Cn2cc(C(=O)NCc3cccnc3)cn2)cc1 [Example 145, 1-(4-(2-aminophenylcarbamoyl)benzyl)-N-(pyridin-3-ylmethyl)-1H-pyrazole-4-carboxamide] |
| ≤ 50 nM | Nc1ccccc1NC(=O)c1ccc(Cn2cc3ccc(C(F)(F)F)cc3n2)cc1 [Example 121, N-(2-aminophenyl)-4-((6-(trifluoromethyl)-2H-indazol-2-yl)methyl)benzamide] |
| ≤ 50 nM | Nc1ccccc1NC(=O)c1ccc(Cn2cc(C(=O)NCCCN3CCOCC3)cn2)cc1 [Example 154, 1-(4-(2-aminophenylcarbamoyl)benzyl)-N-(3-morpholinopropyl)-1H-pyrazole-4-carboxamide] |
| 100 to 500 nM | Cc1ccn(Cc2ccc(C(=O)Nc3ccccc3N)cc2)n1 [Example 123, N-(2-aminophenyl)-4-((3-methyl-1H-pyrazol-1-yl)methyl)benzamide] |
| 50 to 100 nM | Nc1ccccc1NC(=O)c1ccc(Cn2cc3cc(C(F)(F)F)ccc3n2)cc1 [Example 120, N-(2-aminophenyl)-4-((5-(trifluoromethyl)-2H-indazol-2-yl)methyl)benzamide] |
| 50 to 100 nM | Nc1ccccc1NC(=O)c1ccc(Cn2cc3c(n2)CCCC3)cc1 [Example 129, N-(2-aminophenyl)-4-((4,5,6,7-tetrahydro-2H-indazol-2-yl)methyl)benzamide] |
| 50 to 100 nM | NC(=O)c1cnn(Cc2ccc(C(=O)Nc3ccccc3N)cc2)c1 [Example 142, 1-(4-(2-aminophenylcarbamoyl)benzyl)-1H-pyrazole-4-carboxamide] |
